Assay results from the NIST ThermoML archive (doi:10.1021/je500153g).

Key:
[1] = 101 kPa, Liquid; for viscosity: Concentric cylinders viscometry; for mass density: Vibrating tube method
[2] = xn = mol fraction of the nth substance listed; details: 101 kPa, Liquid; for viscosity: Concentric cylinders viscometry; for mass density: Vibrating tube method

CCC(C)O (stereo not given) [butan-2-ol]
[1]
Details	mass density [kg/m3]	viscosity [mPa·s]
303.15 K	799.3	2.51
313.15 K	790.7	1.78
323.15 K	781.7	1.31
333.15 K	772.1	0.99
343.15 K	762	0.78

CCC(C)O (stereo not given) [butan-2-ol] + O=S1(=O)CCCC1
[2], x2 = 0
Details	mass density [kg/m3]	viscosity [mPa·s]
303.15 K	799.3	2.51
313.15 K	790.7	1.78
323.15 K	781.7	1.31
333.15 K	772.1	0.99
343.15 K	762	0.78

OCCOCCO [diethylene glycol]
[1]
Details	mass density [kg/m3]	viscosity [mPa·s]
303.15 K	1110	22.5
313.15 K	1103	14.9
323.15 K	1095.9	10.4
333.15 K	1088.5	7.6
343.15 K	1081.1	5.75

OCCOCCO [diethylene glycol] + O=S1(=O)CCCC1
[2], x2 = 0
Details	mass density [kg/m3]	viscosity [mPa·s]
303.15 K	1110	22.5
313.15 K	1103	14.9
323.15 K	1095.9	10.4
333.15 K	1088.5	7.6
343.15 K	1081.1	5.75

CC(C)O [propan-2-ol]
[1]
Details	mass density [kg/m3]	viscosity [mPa·s]
303.15 K	777.5	1.78
313.15 K	768.8	1.34
323.15 K	759.7	1.03
333.15 K	750	0.79
343.15 K	739.5	0.64

CC(C)O [propan-2-ol] + O=S1(=O)CCCC1
[2], x2 = 0
Details	mass density [kg/m3]	viscosity [mPa·s]
303.15 K	777.5	1.78
313.15 K	768.8	1.34
323.15 K	759.7	1.03
333.15 K	750	0.79
343.15 K	739.5	0.64

O=S1(=O)CCCC1 [sulfolane]
[1]
Details	mass density [kg/m3]	viscosity [mPa·s]
303.15 K	1262.9	10.4
313.15 K	1254.1	8.07
323.15 K	1245.2	6.45
333.15 K	1236.6	5.22
343.15 K	1228.1	4.32

O=S1(=O)CCCC1 [sulfolane] + OCCOCCOCCO
[2], x1 = 1
Details	mass density [kg/m3]	viscosity [mPa·s]
303.15 K	1262.9	10.4
313.15 K	1254.1	8.07
323.15 K	1245.2	6.45
333.15 K	1236.6	5.22
343.15 K	1228.1	4.32

OCCOCCOCCO [triethylene glycol]
[1]
Details	mass density [kg/m3]	viscosity [mPa·s]
303.15 K	1116.5	29.5
313.15 K	1108.9	19.3
323.15 K	1101.1	13.3
333.15 K	1093.4	9.58
343.15 K	1085.5	7.16
